Assays:
[1] = tested on: P388; experiment: In vivo antineoplastic activity was determined in BDF1 mice implanted with P388 leukemia and activity is expressed as T/C at 40 mg/kg ip dose (Q4dx2 treatment); assay type: functional, Mus musculus; conditions: route intraperitoneal
[2] = tested on: L1210; experiment: In vitro cytotoxicity against L1210 leukemia cells was determined; assay type: functional; conditions: Mus musculus
[3] = tested on: P388; experiment: In vivo antineoplastic activity was determined in BDF1 mice implanted with P388 leukemia and activity is expressed as T/C at 80 mg/kg ip dose (Q4dx2 treatment); assay type: functional, Mus musculus; conditions: route intraperitoneal
[4] = tested on: P388; experiment: In vivo antineoplastic activity was determined in BDF1 mice implanted with P388 leukemia and activity is expressed as T/C at 30 mg/kg ip dose (Q1dx5 treatment); conditions: route intraperitoneal
[5] = tested on: P388; experiment: In vivo antineoplastic activity was determined in BDF1 mice implanted with P388 leukemia and activity is expressed as T/C at 60 mg/kg ip dose (Q1dx5 treatment); conditions: route intraperitoneal
[6] = tested on: P388; experiment: In vivo antineoplastic activity was determined in BDF1 mice implanted with P388 leukemia and activity is expressed as T/C at 120 mg/kg ip dose (Q1dx5 treatment); conditions: route intraperitoneal
[7] = tested on: P388; experiment: In vivo antineoplastic activity was determined in BDF1 mice implanted with P388 leukemia and activity is expressed as T/C at 10 mg/kg ip dose (Q4dx2 treatment); assay type: functional, Mus musculus; conditions: route intraperitoneal
[8] = tested on: P388; experiment: In vivo antineoplastic activity was determined in BDF1 mice implanted with P388 leukemia and activity is expressed as T/C at 160 mg/kg ip dose (Q4dx2 treatment); assay type: functional, Mus musculus; conditions: route intraperitoneal
[9] = tested on: P388; experiment: In vivo antineoplastic activity was determined in BDF1 mice implanted with P388 leukemia and activity is expressed as T/C at 20 mg/kg ip dose (Q4dx2 treatment); assay type: functional, Mus musculus; conditions: route intraperitoneal
[10] = tested on: P388; experiment: In vivo antineoplastic activity was determined in BDF1 mice implanted with P388 leukemia and activity is expressed as T/C at 200 mg/kg ip dose (Q4dx2 treatment); assay type: functional, Mus musculus; conditions: route intraperitoneal
[11] = tested on: P388; experiment: In vivo antineoplastic activity was determined in BDF1 mice implanted with P388 leukemia and activity is expressed as T/C at 400 mg/kg ip dose (Q4dx2 treatment); assay type: functional, Mus musculus; conditions: route intraperitoneal
[12] = tested on: P388; experiment: In vivo antineoplastic activity was determined in BDF1 mice implanted with P388 leukemia and activity is expressed as T/C at 12.5 mg/kg ip dose (Q4dx5 treatment); assay type: functional, Mus musculus; conditions: route intraperitoneal
[13] = tested on: P388; experiment: In vivo antineoplastic activity was determined in BDF1 mice implanted with P388 leukemia and activity is expressed as T/C at 6.25 mg/kg ip dose (Q4dx5 treatment); assay type: functional, Mus musculus; conditions: route intraperitoneal
[14] = tested on: B16; experiment: In vivo antineoplastic activity was determined in BDF1 mice implanted with B16 melanoma and activity expressed as T/C at 160 mg/kg ip dose (Q1Dx9 treatment); assay type: functional, Mus musculus; conditions: route intraperitoneal
[15] = tested on: B16; experiment: In vivo antineoplastic activity was determined in BDF1 mice implanted with B16 melanoma and activity expressed as T/C at 40 mg/kg ip dose (Q1Dx9 treatment); assay type: functional, Mus musculus; conditions: route intraperitoneal
[16] = tested on: B16; experiment: In vivo antineoplastic activity was determined in BDF1 mice implanted with B16 melanoma and activity expressed as T/C at 6.25 mg/kg ip dose (Q1Dx9 treatment); assay type: functional, Mus musculus; conditions: route intraperitoneal
[17] = tested on: B16; experiment: In vivo antineoplastic activity was determined in BDF1 mice implanted with B16 melanoma and activity expressed as T/C at 20 mg/kg ip dose (Q1Dx9 treatment); assay type: functional, Mus musculus; conditions: route intraperitoneal
[18] = tested on: B16; experiment: In vivo antineoplastic activity was determined in BDF1 mice implanted with B16 melanoma and activity expressed as T/C at 50 mg/kg ip dose (Q1Dx9 treatment); assay type: functional, Mus musculus; conditions: route intraperitoneal
[19] = tested on: B16; experiment: In vivo antineoplastic activity was determined in BDF1 mice implanted with B16 melanoma and activity expressed as T/C at 25 mg/kg ip dose (Q1Dx9 treatment); assay type: functional, Mus musculus; conditions: route intraperitoneal
[20] = tested on: B16; experiment: In vivo antineoplastic activity was determined in BDF1 mice implanted with B16 melanoma and activity expressed as T/C at 12.5 mg/kg ip dose (Q1Dx9 treatment); assay type: functional, Mus musculus; conditions: route intraperitoneal
[21] = tested on: P388; experiment: In vivo antineoplastic activity was determined in BDF1 mice implanted with P388 leukemia and activity is expressed as T/C at 100 mg/kg ip dose (Q1dx5 treatment); conditions: route intraperitoneal
[22] = tested on: B16; experiment: In vivo antineoplastic activity was determined in BDF1 mice implanted with B16 melanoma and activity expressed as T/C at 80 mg/kg ip dose (Q1Dx9 treatment); assay type: functional, Mus musculus; conditions: route intraperitoneal
[23] = tested on: P388; experiment: In vivo antineoplastic activity was determined in BDF1 mice implanted with P388 leukemia and activity is expressed as T/C at 25 mg/kg ip dose (Q1dx5 treatment); conditions: route intraperitoneal
[24] = tested on: P388; experiment: In vivo antineoplastic activity was determined in BDF1 mice implanted with P388 leukemia and activity is expressed as T/C at 50 mg/kg ip dose (Q1dx5 treatment); conditions: route intraperitoneal
[25] = tested on: B16; experiment: In vivo antineoplastic activity was determined in BDF1 mice implanted with B16 melanoma and activity expressed as T/C at 100 mg/kg ip dose (Q1Dx9 treatment); assay type: functional, Mus musculus; conditions: route intraperitoneal
[26] = tested on: P388; experiment: In vivo antineoplastic activity was determined in BDF1 mice implanted with P388 leukemia and activity is expressed as T/C at 120 mg/kg ip dose (Q1dx5 treatment); conditions: route intraperitoneal; remark: listed apart in the source
[27] = tested on: Colon adenocarcinoma cell line; experiment: In vitro cytotoxicity against Human colon adenocarcinoma cells was determined; assay type: functional
[28] = tested on: P388; experiment: In vivo antineoplastic activity was determined in BDF1 mice implanted with P388 leukemia and activity is expressed as T/C at 2 mg/kg; assay type: functional, Mus musculus
[29] = tested on: P388; experiment: In vivo antineoplastic activity was determined in BDF1 mice implanted with P388 leukemia and activity is expressed as T/C at 0.06 mg/kg; assay type: functional, Mus musculus
[30] = tested on: P388; experiment: In vivo antineoplastic activity was determined in BDF1 mice implanted with P388 leukemia and activity is expressed as T/C at 0.25 mg/kg; assay type: functional, Mus musculus
[31] = tested on: P388; experiment: In vivo antineoplastic activity was determined in BDF1 mice implanted with P388 leukemia and activity is expressed as T/C at 1 mg/kg; assay type: functional, Mus musculus
[32] = tested on: P388; experiment: In vivo antineoplastic activity was determined in BDF1 mice implanted with P388 leukemia and activity is expressed as T/C at 0.5 mg/kg; assay type: functional, Mus musculus
[33] = tested on: P388; experiment: In vivo antineoplastic activity was determined in BDF1 mice implanted with P388 leukemia and activity is expressed as T/C at 0.12 mg/kg; assay type: functional, Mus musculus
[34] = tested on: P388; experiment: In vivo antineoplastic activity was determined in BDF1 mice implanted with P388 leukemia and activity is expressed as T/C at 200 mg/kg ip dose (Q1dx5 treatment); conditions: route intraperitoneal
[35] = tested on: P388; experiment: In vivo antineoplastic activity was determined in BDF1 mice implanted with P388 leukemia and activity is expressed as T/C at 100 mg/kg ip dose (Q4dx5 treatment); assay type: functional, Mus musculus; conditions: route intraperitoneal
[36] = tested on: P388; experiment: In vivo antineoplastic activity was determined in BDF1 mice implanted with P388 leukemia and activity is expressed as T/C at 100 mg/kg ip dose (Q4dx2 treatment); assay type: functional, Mus musculus; conditions: route intraperitoneal
[37] = tested on: P388; experiment: In vivo antineoplastic activity was determined in BDF1 mice implanted with P388 leukemia and activity is expressed as T/C at 50 mg/kg ip dose (Q4dx2 treatment); assay type: functional, Mus musculus; conditions: route intraperitoneal
[38] = tested on: P388; experiment: In vivo antineoplastic activity was determined in BDF1 mice implanted with P388 leukemia and activity is expressed as T/C at 160 mg/kg ip dose (Q1dx9 treatment); conditions: route intraperitoneal
[39] = tested on: P388; experiment: Antineoplastic activity was determined in BDF1 mice in vivo implanted with P388 leukemia and t/c was determined at 40 mg/kg ip dose (Q4dx9 treatment); assay type: functional, Mus musculus; conditions: route intraperitoneal
[40] = tested on: P388; experiment: In vivo antineoplastic activity was determined in BDF1 mice implanted with P388 leukemia and activity is expressed as T/C at 80 mg/kg ip dose (Q1dx9 treatment); conditions: route intraperitoneal

CN(C)CCNc1ccc(Cl)c2c1C(=O)c1c(Cl)ccc(O)c1C2=O
T/C [1]: 103
CC50 [2]: 1130 nM
T/C [3]: 117

CN(C)CCNc1ccc(Cl)c2c1C(=O)c1c(O)ccc(O)c1C2=O
T/C [4]: 121
T/C [5]: 137
T/C [6]: 169
CC50 [2]: 36.2 nM

O=C1c2c(O)ccc(O)c2C(=O)c2c(NCCNCCO)ccc(Cl)c21
T/C [7]: 113
T/C [8]: 184
T/C [1]: 130
CC50 [2]: 398 nM
T/C [9]: 125
T/C [3]: 154

O=C1c2c(O)ccc(Cl)c2C(=O)c2c(NCCNCCO)ccc(Cl)c21
T/C [10]: 96
T/C [11]: 111

O=C1c2c(O)ccc(NCCNCCO)c2C(=O)c2c(Cl)ccc(Cl)c21
T/C [12]: 146
T/C [13]: 154
T/C [14]: 326
T/C [15]: 231
T/C [16]: 166
T/C [17]: 224
CC50 [2]: 86.6 nM
T/C [18]: 252
T/C [19]: 199
T/C [20]: 172
T/C [21]: 219
T/C [22]: 271
T/C [23]: 203
T/C [24]: 180
T/C [25]: 270

CN(C)CCNc1ccc(O)c2c1C(=O)c1c(Cl)ccc(Cl)c1C2=O
T/C [26]: 176
T/C [4]: 136
T/C [5]: 150
CC50 [27]: 522 nM
CC50 [2]: 86.9 nM

O=C1c2c(O)ccc(O)c2C(=O)c2c(NCCNCCO)ccc(NCCNCCO)c21 [MITOXANTRONE]
T/C [28]: 280
T/C [29]: 208
T/C [30]: 280
T/C [31]: 277
T/C [32]: 299
T/C [33]: 200

CN(C)CCNc1ccc(Cl)c2c1C(=O)c1c(NCCN(C)C)ccc(Cl)c1C2=O
T/C [34]: 119
CC50 [2]: 1670 nM
T/C [35]: 113

O=C1c2cccc(NCCNCCO)c2C(=O)c2cccc(Cl)c21
CC50 [27]: 1400 nM
T/C [10]: 105
CC50 [2]: 1170 nM
T/C [36]: 100

CN(C)CCNc1ccc(NCCN(C)C)c2c1C(=O)c1c(Cl)ccc(Cl)c1C2=O
CC50 [27]: 130 nM
T/C [16]: 117
T/C [10]: 117
CC50 [2]: 117 nM
T/C [18]: 133
T/C [19]: 141
T/C value [20]: 143
T/C [36]: 120
T/C [37]: 110

CN(C)CCCNc1ccc(Cl)c2c1C(=O)c1c(O)ccc(O)c1C2=O
T/C [4]: 109
T/C [5]: 123
T/C [6]: 129
CC50 [2]: 265 nM

O=C1c2cccc(Cl)c2C(=O)c2c(NCCNCCO)cccc21
T/C [38]: 120
T/C [39]: 116
T/C [40]: 124

CN(C)CCNc1ccc(Cl)c2c1C(=O)c1c(O)ccc(Cl)c1C2=O
T/C [10]: 113
CC50 [2]: 176 nM
T/C [11]: 125

CN(C)CCNc1ccc(Cl)c2c1C(=O)c1c(Cl)ccc(NCCN(C)C)c1C2=O
CC50 [27]: 229 nM
T/C [10]: 128
CC50 [2]: 385 nM
T/C [11]: 123
T/C [36]: 115
